Assay results: US20220218679A1, “NOVEL COMPOUNDS AND PHARMACEUTICAL COMPOSITIONS THEREOF FOR THE TREATMENT OF INFLAMMATORY DISORDERS” (Galapagos NV, priority 2019, published 2022)
Converted amounts (≈) assume the structure as drawn. Like-named read-outs stand apart in the source and are kept apart here.

Tests used:
[1] = tested on: CL097 triggered TNFα release in human whole blood; assay: Ex vivo human TNFα release inhibition (human whole blood assay); format: cell-based; conditions: CL097 2 μg/mL, 3 h 30 min at 37° C.
From the text: 4.10.1. Ex Vivo Human IFNα and TNFα Release Inhibition (Human Whole Blood Assay)
The aim of the assay is to evaluate the activity of compounds of the invention on the activated TLR/IRAK-4 pathway in an ex vivo human whole blood setting. Toll-like receptors (TLRs) are pattern recognition receptors that recognize a wide variety of microbial molecules, called pathogen-associated molecular patterns (PAMPs). Human TLR7 and TLR8 recognize imidazoquinoline compounds (e.g., CL097—CAS n #1026249-18-2) and single stranded RNAs as their natural ligands. Activation of TLRs leads to the production of several cytokines (e.g., IFNα, TNFα, IL-8, IL-6) by the TLR agonist-treated cells, whereas IRAK4 leads to the production of IFNα. Cytokine release is used as readout in this assay and represents a measure for the level of inhibition of the TLR/IRAK-4 pathway by the tested compound. It should be noted that in the context of the complete organism, other sources for these cytokines exist that are not dependent on the TLR/IRAK-4 pathway, such as e.g., macrophages (upon activation of the Fcγ receptor (Yan et al., 2012)) or T cells (upon activation of the T cell receptor (Brehm et al., 2005)).
4.10.1.1. Experimental Design
Blood was collected from healthy volunteers into lithium heparin tubes by venipuncture, then gently inverted several times to prevent clotting and incubated for at least 15 min at 37° C. on a rocking mixer shaker. Then, 100 μL of blood was dispensed into polypropylene 96-well microplate and pre-incubated in duplicate with 0.3% DMSO or test compound at different concentrations (from 30 to 0.01 μM, 3-fold dilutions to get 0.3% DMSO at the final) for 15 min at 37° C. After this pre-incubation, blood was triggered with CL097 (2 μg/mL from 1 mg/mL solution in water; InvivoGen, tlrl-c97) for 3 h 30 min at 37° C. Microtubes were centrifuged at 5000×g for 10 min at 4° C. and approximately 40 μL of plasma were collected into a polystyrene 96-well plate. Plasma could be analyzed freshly, within 30 min after triggering, or frozen at −80° C. Finally, the quantification of TNFα and IFNα were performed in the plasma using AlphaLISA Kit for TNFα and IFNα according to the manufacturer's instructions and read on the Ensight (PerkinElmer).
For each blood sample, the TNFα concentrations of the samples were determined from the fit. Data were then expressed a percentage of inhibition PIN for each replicate using the formula:
With mean TNFα with CL097=mean TNFα concentration of replicate samples triggered with CL097; TNFαsample1=TNFα concentration of sample 1; mean TNFα with vehicle=mean TNFα concentration of replicate samples treated with vehicle.
Curve fitting for pIC50 determination were generated using mean PIN±sem. Graphs and pIC50 calculations were derived using Prism 5.03 software (GraphPad).

Thermodynamic solubility = format: physicochemical; conditions: for solubility thermodynamic at 24 h: 37 °C, thermodynamic from solid
From the text: 4.2. Thermodynamic Solubility
Poor solubility, in particular poor thermodynamic solubility can limit the absorption of compounds from the gastrointestinal tract which in turn may reduce oral bioavailability.
Thermodynamic solubility investigates the solubility of a compound as a saturated solution in equilibrium, by opposition to kinetic solubility, which measures the solubility of a metastable solution where supersaturation may occur and provide over estimation of the actual solubility of the compound. (Klein, 2010)
4.2.2. Thermodynamic Solubility—Protocol 2
In a 8 mL glass vial, 1-2 mg of dry matter of compound were added and stirred with the suitable buffers (Fed State Simulated Intestine Fluid, FeSSIF, or Fasted State Simulated Intestine Fluid, FaSSIF, or Fasted State Simulated Gastric Fluid, FaSSGF, or phosphate buffer pH 7.4) for 24 h at r.t. (for the buffer pH 7.4) or 37° C. (for the GI fluids). The concentration of the mixture was 1 mg/mL.
A volume of 1000 μL were sampled, centrifuged for 10 min at 10 000 rpm and 500 μL of the supernatant were filtered on captiva plate. The samples were diluted in duplicates in DMSO (F100 and F10). Then, a final dilution (F100) in 80/20 H2O/MeCN containing the internal standard (warfarin) was used for LCMS-MS analysis.
A standard curve was made starting from a 40,000 ng/mL stock in DMSO, freshly prepared from dry matter. Then, successive concentrations at 15,000, 11,000, 6,000, 2,500, 1,000, 375, 150 and 75 ng/mL in DMSO were prepared.
Three quality control samples were made: one of 10,000, 1,500 and 200 ng/mL in DMSO, also starting from the DMSO working stock solution at 40,000 ng/mL.
The standard curve and quality controls were diluted a F100 in 80/20 H2O/MeCN (with internal standard) and analyzed on LC/MS-MS (API4000 or API5500).
The samples were analyzed on LC-MS with a flow rate of 0.6 mL/min. The mobile phase A was 0.1% formic acid in water and the mobile phase B was 0.1% formic acid in 90% MeCN and 10% of H2O. The sample was run under positive or negative ion spray on Pursuit C18—5 μm (2.0×20 mm) column, from Agilent.
The ratio analyte/internal standard peaks areas of the standard curve were plotted in a graph and a linear or polynomial of the second order equation was used to calculate the unknown concentrations of the test compound.
Solubility values were reported in μg/mL.

[2] = Fasted State Simulated Gastric Fluid, 24 h, 37° C.
[3] = Fasted State Simulated Intestine Fluid (FaSSIF), fassif, Fasted State Simulated Intestine Fluid, read-out: Tsol FaSSIF
[4] = Fed State Simulated Intestine Fluid (FeSSIF), fessif, Fed State Simulated Intestine Fluid, read-out: Tsol FeSSIF
[5] = Fasted State Simulated Gastric Fluid (FaSSGF), fassgf or other biorelevant, Fasted State Simulated Gastric Fluid, read-out: Tsol FaSSGF

Compound	IC50 ([1]; Homo sapiens) [µM]	Tsol FaSSGF (Thermodynamic solubility; [2]) [µg/mL]	solubility thermodynamic at 24 h (Thermodynamic solubility; [3]) [µg/mL]	solubility thermodynamic at 24 h (Thermodynamic solubility; [4]) [µg/mL]	IC50 [1] [µM]	Tsol FaSSIF (Thermodynamic solubility; Fasted State Simulated Intestine Fluid, 24 h, 37° C.) [µg/mL]	Tsol FeSSIF (Thermodynamic solubility; Fed State Simulated Intestine Fluid, 24 h, 37° C.) [µg/mL]	solubility thermodynamic at 24 h (Thermodynamic solubility; [5]) [µg/mL]
COc1cn2nc(CC(F)C(C)(C)O)cc2cc1NC(=O)c1cccn(C2CC2)c1=O (single isomer, unassigned; enantiomer a) [Compound 25, 1-cyclopropyl-N-[2-(2-fluoro-3-hydroxy-3-methyl-butyl)-6-methoxy-pyrazolo[1,5-a]pyridin-5-yl]-2-oxo-pyridine-3-carboxamide Enantiomer A]	0.5 to 1	389	20.2 (≈ 47.1 µM)	59.6 (≈ 139 µM)	–	–	–	–
COc1cn2nc(CC(F)C(C)(C)O)cc2cc1NC(=O)c1cccn(C2CC2)c1=O (single isomer, unassigned; enantiomer b) [Compound 26, 1-cyclopropyl-N-[2-(2-fluoro-3-hydroxy-3-methyl-butyl)-6-methoxy-pyrazolo[1,5-a]pyridin-5-yl]-2-oxo-pyridine-3-carboxamide Enantiomer B]	–	818	–	–	1 to 5	34.5	52.7	–
COc1cn2nc(CCC(C)(C)O)cc2cc1NC(=O)c1cccn(C2CC2)c1=O [Compound 1, 1-cyclopropyl-N-[2-(3-hydroxy-3-methylbutyl)-6-methoxypyrazolo[1,5-a]pyridin-5-yl]-2-oxopyridine-3-carboxamide]	0.0001 to 0.5	–	11.3 (≈ 27.5 µM)	83.4 (≈ 203 µM)	–	–	–	–
COc1cn2nc(CCC(C)(C)O)cc2cc1NC(=O)c1cccn(C)c1=O [Compound 2, N-[2-(3-hydroxy-3-methylbutyl)-6-methoxypyrazolo[1,5-a]pyridin-5-yl]-1-methyl-2-oxopyridine-3-carboxamide]	0.0001 to 0.5	–	10.2 (≈ 26.5 µM)	–	–	–	–	–
COc1cn2nc(CCC(C)(C)O)cc2cc1NC(=O)c1cccc(C(F)(F)F)n1 [Compound 3, N-[2-(3-hydroxy-3-methylbutyl)-6-methoxypyrazolo[1,5-a]pyridin-5-yl]-6-(trifluoromethyl)pyridine-2-carboxamide]	1 to 5	–	0.801 (≈ 1.9 µM)	27.6 (≈ 65.3 µM)	–	–	–	106 (≈ 251 µM)
CNC(=O)c1cn2nc(CCC(C)(C)O)cc2cc1NC(=O)c1cccc(C(F)(F)F)n1 [Compound 5, 2-(3-hydroxy-3-methylbutyl)-N-methyl-5-[[6-(trifluoromethyl)pyridine-2-carbonyl]amino]pyrazolo[1,5-a]pyridine-6-carboxamide]	1 to 5	–	2.26 (≈ 5.03 µM)	14.2 (≈ 31.6 µM)	–	–	–	1.96 (≈ 4.36 µM)
COc1cn2nc(CCC(C)(C)O)cc2cc1NC(=O)c1cccn(C(F)F)c1=O [Compound 7, 1-(difluoromethyl)-N-[2-(3-hydroxy-3-methyl-butyl)-6-methoxy-pyrazolo[1,5-a]pyridin-5-yl]-2-oxo-pyridine-3-carboxamide]	1 to 5	–	28 (≈ 66.6 µM)	93.9 (≈ 223 µM)	–	–	–	> 1000
CCOc1cn2nc(CCC(C)(C)O)cc2cc1NC(=O)c1cccn(C(F)F)c1=O [Compound 9, 1-(difluoromethyl)-N-[6-ethoxy-2-(3-hydroxy-3-methyl-butyl)pyrazolo[1,5-a]pyridin-5-yl]-2-oxo-pyridine-3-carboxamide]	0.5 to 1	–	3.96 (≈ 9.12 µM)	–	–	–	–	3.82 (≈ 8.79 µM)
COc1c(NC(=O)c2cccn(C3CC3)c2=O)cc2cc(CCC(C)(C)O)nn2c1C [Compound 13, 1-cyclopropyl-N-[2-(3-hydroxy-3-methyl-butyl)-6-methoxy-7-methyl-pyrazolo[1,5-a]pyridin-5-yl]-2-oxo-pyridine-3-carboxamide]	–	–	1.77 (≈ 4.17 µM)	–	–	–	–	8.45 (≈ 19.9 µM)

Now from value to compound:

IC50 ([1]; Homo sapiens) [µM]	Tsol FaSSGF (Thermodynamic solubility; [2]) [µg/mL]	solubility thermodynamic at 24 h (Thermodynamic solubility; [3]) [µg/mL]	solubility thermodynamic at 24 h (Thermodynamic solubility; [4]) [µg/mL]	IC50 [1] [µM]	Tsol FaSSIF (Thermodynamic solubility; Fasted State Simulated Intestine Fluid, 24 h, 37° C.) [µg/mL]	Tsol FeSSIF (Thermodynamic solubility; Fed State Simulated Intestine Fluid, 24 h, 37° C.) [µg/mL]	solubility thermodynamic at 24 h (Thermodynamic solubility; [5]) [µg/mL]	Compound
0.0001 to 0.5	–	0.75 (≈ 1.72 µM)	6.01 (≈ 13.8 µM)	–	–	–	< 0.75	CC(C)(O)CCc1cc2cc(NC(=O)c3cccc(C(F)(F)F)n3)c(C(N)=O)cn2n1 [Compound 4, 2-(3-hydroxy-3-methylbutyl)-5-[[6-(trifluoromethyl)pyridine-2-carbonyl]amino]pyrazolo[1,5-a]pyridine-6-carboxamide]
–	–	< 0.75	< 0.75	–	–	–	< 0.75	CNC(=O)c1cn2nc(C3CCCS(=O)(=O)C3)cc2cc1NC(=O)c1cccc(C(F)(F)F)n1 (stereo not shown) [Compound 8, 2-(1,1-dioxothian-3-yl)-N-methyl-5-[[6-(trifluoromethyl)pyridine-2-carbonyl]amino]pyrazolo[1,5-a]pyridine-6-carboxamide]
1 to 5	–	183 (≈ 397 µM)	–	–	–	–	> 1000	CNC(=O)c1cn2nc(C3CCN(C)CC3)cc2cc1NC(=O)c1cccc(C(F)(F)F)n1 [Compound 12, N-methyl-2-(1-methyl-4-piperidyl)-5-[[6-(trifluoromethyl)pyridine-2-carbonyl]amino]pyrazolo[1,5-a]pyridine-6-carboxamide]
–	–	1.29 (≈ 3.11 µM)	–	–	–	–	–	NC(=O)c1cn2nc(C3CCOCC3)cc2cc1NC(=O)c1cccc(C(F)F)n1 [Compound 16, 5-[[6-(difluoromethyl)pyridine-2-carbonyl]amino]-2-tetrahydropyran-4-yl-pyrazolo[1,5-a]pyridine-6-carboxamide]
–	–	12.5 (≈ 29 µM)	70.6 (≈ 164 µM)	–	–	–	8.26 (≈ 19.1 µM)	CNC(=O)c1cn2nc(CCC(C)(C)O)cc2cc1NC(=O)c1cccc(C(F)F)n1 [Compound 19, 5-[[6-(difluoromethyl)pyridine-2-carbonyl]amino]-2-(3-hydroxy-3-methyl-butyl)-N-methyl-pyrazolo[1,5-a]pyridine-6-carboxamide]
–	–	3.09 (≈ 7.4 µM)	–	–	–	–	1.62 (≈ 3.88 µM)	CC(C)(O)CCc1cc2cc(NC(=O)c3cccc(C(F)F)n3)c(C(N)=O)cn2n1 [Compound 20, 5-[[6-(difluoromethyl)pyridine-2-carbonyl]amino]-2-(3-hydroxy-3-methyl-butyl)pyrazolo[1,5-a]pyridine-6-carboxamide]
